Experimental findings from ChEMBL document CHEMBL5236635, “Structure-Based Drug Design and Synthesis of Novel N-Aryl-2,4-bithiazole-2-amine CYP1B1-Selective Inhibitors in Overcoming Taxol Resistance in A549 Cells” (J Med Chem, 2022) are described below.

One data set addresses T1, Cytochrome P450 1B1 (Homo sapiens, UniProt Q16678).
T1 sequence (Q16678 whole entry): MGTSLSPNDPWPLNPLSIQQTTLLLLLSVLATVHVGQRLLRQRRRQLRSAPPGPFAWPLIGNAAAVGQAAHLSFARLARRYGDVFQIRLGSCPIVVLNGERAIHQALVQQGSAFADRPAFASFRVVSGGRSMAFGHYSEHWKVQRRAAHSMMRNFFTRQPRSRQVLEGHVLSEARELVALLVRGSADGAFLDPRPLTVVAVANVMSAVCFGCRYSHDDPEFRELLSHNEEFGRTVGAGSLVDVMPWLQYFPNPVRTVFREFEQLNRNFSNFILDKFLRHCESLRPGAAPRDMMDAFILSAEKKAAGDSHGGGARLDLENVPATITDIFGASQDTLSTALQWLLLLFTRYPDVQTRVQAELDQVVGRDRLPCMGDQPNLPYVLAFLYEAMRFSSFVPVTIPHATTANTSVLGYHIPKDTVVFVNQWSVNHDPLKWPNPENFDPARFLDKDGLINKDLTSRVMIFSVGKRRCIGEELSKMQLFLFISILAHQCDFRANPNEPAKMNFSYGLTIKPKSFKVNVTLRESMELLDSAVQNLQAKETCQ
Kind of data set: Inhibition of recombinant human CYP1B1 using 7-ethyl-0-resorufin as substrate incubated for 30 mins in presence of NADPH by EROD assay.

A further data set has as its target T2, Cytochrome P450 1A1 (Homo sapiens, UniProt P04798).
T2 sequence (P04798 whole entry): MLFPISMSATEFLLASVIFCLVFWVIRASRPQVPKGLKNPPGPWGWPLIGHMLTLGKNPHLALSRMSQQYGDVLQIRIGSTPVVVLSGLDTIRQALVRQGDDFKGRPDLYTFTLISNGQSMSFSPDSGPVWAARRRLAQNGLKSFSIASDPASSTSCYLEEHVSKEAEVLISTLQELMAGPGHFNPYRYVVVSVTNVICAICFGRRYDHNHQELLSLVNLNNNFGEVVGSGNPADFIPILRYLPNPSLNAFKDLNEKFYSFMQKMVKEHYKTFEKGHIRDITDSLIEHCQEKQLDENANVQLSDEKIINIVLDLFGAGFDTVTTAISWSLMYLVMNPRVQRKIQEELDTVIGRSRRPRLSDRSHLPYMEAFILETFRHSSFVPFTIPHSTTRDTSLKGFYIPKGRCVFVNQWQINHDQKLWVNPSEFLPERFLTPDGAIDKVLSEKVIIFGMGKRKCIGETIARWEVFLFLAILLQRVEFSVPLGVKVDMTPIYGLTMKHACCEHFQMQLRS
Kind of data set: Inhibition of recombinant human CYP1A1 using 7-ethyl-0-resorufin as substrate incubated for 30 mins in presence of NADPH by EROD assay.

The target of another data set is T3, Cytochrome P450 1A2 (Homo sapiens, UniProt P05177).
T3 sequence (P05177 whole entry): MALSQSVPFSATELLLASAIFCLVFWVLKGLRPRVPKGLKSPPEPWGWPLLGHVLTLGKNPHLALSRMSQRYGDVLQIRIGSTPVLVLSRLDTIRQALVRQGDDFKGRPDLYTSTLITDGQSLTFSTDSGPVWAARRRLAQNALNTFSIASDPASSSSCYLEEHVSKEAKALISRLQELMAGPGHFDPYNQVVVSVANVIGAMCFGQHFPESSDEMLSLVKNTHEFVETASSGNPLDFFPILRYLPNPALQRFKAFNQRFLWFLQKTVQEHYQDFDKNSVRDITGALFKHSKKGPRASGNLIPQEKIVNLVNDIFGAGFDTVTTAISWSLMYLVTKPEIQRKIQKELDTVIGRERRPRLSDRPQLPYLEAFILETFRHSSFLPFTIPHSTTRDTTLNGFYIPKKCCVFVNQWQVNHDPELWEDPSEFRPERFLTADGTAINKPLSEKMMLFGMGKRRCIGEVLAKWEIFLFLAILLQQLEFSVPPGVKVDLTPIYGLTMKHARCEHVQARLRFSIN
The experiment in a line: Inhibition of recombinant human CYP1A2 using 7-ethyl-0-resorufin as substrate incubated for 30 mins in presence of NADPH by EROD assay.

Another data set relates to CYP1A1 versus CYP1B1. Kind of data set: Selectivity index, ratio of IC50 for inhibition of recombinant human CYP1A1 to IC50 for inhibition of recombinant human CYP1B1. The following applies: recombinant human CYP1A1 and recombinant human CYP1B1.
The test system of another data set is CYP1A2 versus CYP1B1. The experiment in a line: Selectivity index, ratio of IC50 for inhibition of recombinant human CYP1A2 to IC50 for inhibition of recombinant human CYP1B1. The following applies: recombinant human CYP1A2 and recombinant human CYP1B1.

Where only a bound is given, the exact number is not on record here.

`Clc1cc(Cl)cc(Nc2nc(-c3nc(-c4ccccn4)cs3)cs2)c1`: the results for the IC50 on Cytochrome P450 1B1, at Cytochrome P450 1A1 and at Cytochrome P450 1A2 were 0.0448 µM, 0.916 µM and 5.39 µM, respectively. Further, the selectivity ratio came to 20.4 in the data set with CYP1A1 versus CYP1B1 and 120 with CYP1A2 versus CYP1B1.
For `C#CCOc1ccccc1-c1csc(-c2csc(Nc3cc(OC)cc(OC)c3)n2)n1`, in that order: 0.0776 µM, 0.271 µM, 0.916 µM, 3.49 and 11.8.
For `CCc1sc(-c2csc(Nc3cc(OC)cc(OC)c3)n2)nc1-c1ccccc1`, in that order: 0.0109 µM, 0.611 µM, 5.25 µM, 56.3 and 484.
In the case of `C#CCOc1ccccc1-c1csc(-c2csc(Nc3cccc(F)c3)n2)n1`, the IC50 at Cytochrome P450 1B1 worked out at 0.0222 µM; on Cytochrome P450 1A1, 0.125 µM; at Cytochrome P450 1A2, 1.04 µM. In addition, the selectivity ratio stood at 5.64 in the data set with CYP1A1 versus CYP1B1 and 46.8 in the data set with CYP1A2 versus CYP1B1.
The like results for `Cc1sc(-c2csc(Nc3cc(Cl)cc(Cl)c3)n2)nc1-c1ccccc1` were, in that order, 0.0233 µM, 0.316 µM, 0.313 µM, 13.5 and 13.4.
The like results for `COc1cc(Nc2nc(-c3nc(-c4ccccc4)c(-c4ccccc4)s3)cs2)cc(OC)c1` were, in that order, 0.0862 µM, 0.524 µM, greater than 10 µM, 6.08 and greater than 116.
In the case of `CCc1sc(-c2csc(Nc3cc(Cl)cc(Cl)c3)n2)nc1-c1ccccc1`, the half-maximal inhibitory concentration (IC50) was found to be 0.0295 µM on Cytochrome P450 1B1, 0.0999 µM at Cytochrome P450 1A1 and 0.227 µM on Cytochrome P450 1A2. The selectivity ratio in the data set on CYP1A1 versus CYP1B1 came to 3.39; in the data set on CYP1A2 versus CYP1B1, 7.69.
`c1ccc(-c2csc(-c3csc(Nc4ccc(N5CCOCC5)cc4)n3)n2)cc1`: the values for the IC50 at Cytochrome P450 1B1, at Cytochrome P450 1A1 and at Cytochrome P450 1A2 were 0.0116 µM, 0.334 µM and 2.86 µM, respectively. Moreover, the selectivity ratio in the data set with CYP1A1 versus CYP1B1 was 28.9; with CYP1A2 versus CYP1B1, 247.
For `c1ccc(-c2csc(-c3csc(Nc4ccc(N5CCOCC5)cc4)n3)n2)nc1`, in that order: 0.0129 µM, 0.0479 µM, 11.7 µM, 3.71 and 905.
The like results for `Clc1cc(Cl)cc(Nc2nc(-c3nc(-c4ccncc4)cs3)cs2)c1` were, in that order, 0.0144 µM, 1.02 µM, 2.34 µM, 70.4 and 162.
With `COc1cc(Nc2nc(-c3nc(-c4ccccc4)c(C)s3)cs2)cc(OC)c1`, the IC50 was found to be 0.0648 µM at Cytochrome P450 1B1, 0.388 µM on Cytochrome P450 1A1 and 0.913 µM on Cytochrome P450 1A2. The selectivity ratio in the data set with CYP1A1 versus CYP1B1 was 5.98; in the data set with CYP1A2 versus CYP1B1, 14.1.
For `c1cncc(-c2csc(-c3csc(Nc4ccc(N5CCOCC5)cc4)n3)n2)c1`, in that order: 0.0159 µM, 0.0224 µM, 2.55 µM, 1.4 and 160.
The like results for `Cc1sc(-c2csc(Nc3cccc(F)c3)n2)nc1-c1ccncc1` were, in that order, 0.0733 µM, 0.105 µM, 0.23 µM, 1.43 and 3.14.
For `CCc1sc(-c2csc(Nc3ccc(N4CCOCC4)cc3)n2)nc1-c1ccncc1`, in that order: 0.155 µM, 0.153 µM, 3.45 µM, 0.99 and 22.3.
With `Cc1sc(-c2csc(Nc3ccc(N4CCOCC4)cc3)n2)nc1-c1ccncc1`, the half-maximal inhibitory concentration (IC50) stood at 0.203 µM on Cytochrome P450 1B1, 0.276 µM at Cytochrome P450 1A1 and 1.26 µM at Cytochrome P450 1A2. The selectivity ratio amounted to 1.36 in the data set with CYP1A1 versus CYP1B1 and 6.2 with CYP1A2 versus CYP1B1.

Broadly, the IC50 is the concentration needed to halve the response being measured.
